From patent US12685777B2, “Compositions, systems, and methods for modulating a target gene” (The Board of Trustees of the Leland Stanford Junior …, priority 2022, dated 2026)
Entries after “also recorded” stand apart in the source; their conditions may differ. Where two headings read alike, the source gives them in different places.

Tests used:
[1] = molecular target: T1, CDK9 and BCL6 (Homo sapiens, UniProt P41182+P50750); assay: Competition of TCIP-induced cell death with BCL6 inhibitor; type: cell-based; conditions: cell death recorded 72 hours after adding
T1 construct: endogenous in cells

[2] = tested on: SUDHL5; assay: Killing of lymphoma cell lines by CDK9-BCL6 TCIPs, death recorded 72 hours later; type: cell-based, human
Procedure: FIG. 15 CDK9-BCL6 TCIPs Effectively Kill Human Lymphomas. The molecules shown in FIG. 14 were used at the indicated concentrations to treat different lymphoma cell lines, such as SUDHL5 shown here. Death was recorded 72 hours later.

[3] = tested on: human prostatic cancer cell lines; assay: Viable cell counts of androgen-dependent prostate cancer cell lines after 72 hours; type: cell-based; conditions: 72 hours of exposure, read-out: IC50 of killing of prostate cancer cell lines
Procedure: The AR-BCL6 TCIPs synthesized in I above were tested for their ability to kill prostate cancer cell lines as an indication of their ability to treat human prostatic cancer. AR-TCIPs rapidly and robustly kill human prostatic cancer cell lines. Four different cell lines were used that are androgen-dependent. The drugs were added at the indicated concentrations and viable cell counts determined after 72 hours of exposure. […] The EC50 is shown in each case.

[4] = molecular target: T2, AR and BCL6 (Homo sapiens, UniProt P10275+P41182); assay: AR-BCL6 nanoBRET assay in HEK293 cells; type: cell-based; conditions: labeled AR and BCL6
T2 construct: HaloTag; NanoLuc; expressed in transfected cells; host or cells: HEK293
Source text: To ascertain activity of TCIP RCS-02-063 as schematically illustrated in FIG. 1, w a BRET assay was developed to detect in vivo target engagement and ternary complex formation. FIG. 25 (Panels A-B) provides an illustration of the assay as wells the results obtained therefrom. […] A BRET signal at 618 nm was then detected after excitation at 460 nm of HEK293 cells infected with the labeled fusion proteins.

[5] = tested on: DLBCL cell lines; assay: Chemical rescue: competitive titration of JQ1 or Bl3812 against the TCIP; type: cell-based; conditions: titrated against constant JWZ-7-7 / TCIP1
[6] = tested on: NCI-H2196; assay: Dose response on viability of small cell lung cancer line, resazurin assay; type: cell-based; conditions: NCI-H2196, 72 h treatment
Procedure: (§1) IC50 of JWZ-7-7, BI-3812, JQ1, and combinations were calculated based on a dose response curve on three small cell lung cancer lines (FIG. 5). The dose response curve on viability was performed in technical replicates and biological triplicate after treating cells for 72 hours across a broad range of concentrations via serial dilutions. Viable cells were measured after treatment via a resazurin assay. The signal for viable assays was normalized to the DMSO treated negative control. A four-parameter non-linear fit was performed to fit a curve to calculate the IC50 for each of the cell lines. The table below describes the calculated IC50 across JWZ-7-7, JQ1, BI-3812 and combination of JQ1 and BI-3812 after 72 h treatment in technical replicates and biological triplicates.

[7] = tested on: DMS-79; assay: as above; type: cell-based; conditions: DMS-79, 72 h treatment
Procedure: as §1

[8] = tested on: NCI-H1105; assay: as above; type: cell-based; conditions: NCI-H1105, 72 h treatment
Procedure: as §1

[9] = tested on: MYC, FOXO3, p21, BCL6, BRD4 protein levels in KARPAS422 and SUDHL5; conditions: known for BET/BRD4 inhibitors; cited from earlier work

T2 sequence (P10275 whole entry, other chains not shown): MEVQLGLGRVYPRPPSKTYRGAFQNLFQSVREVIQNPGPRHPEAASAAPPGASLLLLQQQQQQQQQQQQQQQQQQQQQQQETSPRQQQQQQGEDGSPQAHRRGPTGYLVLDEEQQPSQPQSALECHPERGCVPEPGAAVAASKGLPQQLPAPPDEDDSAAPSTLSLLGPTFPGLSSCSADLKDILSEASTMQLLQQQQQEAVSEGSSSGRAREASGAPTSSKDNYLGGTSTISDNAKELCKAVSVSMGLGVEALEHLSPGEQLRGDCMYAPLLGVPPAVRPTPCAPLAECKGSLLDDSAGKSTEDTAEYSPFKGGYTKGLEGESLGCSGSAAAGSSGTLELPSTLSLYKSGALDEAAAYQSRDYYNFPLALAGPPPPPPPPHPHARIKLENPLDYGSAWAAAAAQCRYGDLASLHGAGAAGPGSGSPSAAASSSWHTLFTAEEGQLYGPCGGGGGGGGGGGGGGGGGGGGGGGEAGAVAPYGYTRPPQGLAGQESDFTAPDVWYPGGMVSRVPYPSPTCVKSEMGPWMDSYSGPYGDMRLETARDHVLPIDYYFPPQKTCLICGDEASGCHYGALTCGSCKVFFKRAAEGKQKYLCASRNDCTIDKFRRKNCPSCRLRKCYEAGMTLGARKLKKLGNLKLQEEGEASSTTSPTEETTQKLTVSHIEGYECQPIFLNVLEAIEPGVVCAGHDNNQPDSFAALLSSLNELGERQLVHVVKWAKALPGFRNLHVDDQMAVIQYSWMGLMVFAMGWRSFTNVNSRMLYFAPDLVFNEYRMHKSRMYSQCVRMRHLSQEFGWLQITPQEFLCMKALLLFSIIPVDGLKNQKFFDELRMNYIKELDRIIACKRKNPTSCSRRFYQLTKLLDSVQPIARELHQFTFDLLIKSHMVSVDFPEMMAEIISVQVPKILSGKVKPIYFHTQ

SMILES: CNC(=O)COc1cc2cc(Nc3nc(N4CCC(C(=O)NCCCCCCC(=O)N5CCC(C(=O)Nc6ncc(SCc7ncc(C(C)(C)C)o7)s6)CC5)CC4)ncc3Cl)cc(OC)c2n(C)c1=O [BAK04-21]
- Ternary complex in cells, competition with Bl3812 [1]: forms a ternary complex in cells that can be competed with the BCL6 inhibitor

SMILES: CNC(=O)COc1cc2cc(Nc3nc(N4CCC(C(=O)NCCCCCCC(=O)N5CCC(C(=O)Nc6ncc(SCc7ncc(C(C)(C)C)o7)s6)CC5)CC4)ncc3Cl)cc(OC)c2n(C)c1=O [BAK_04_21]
- Killing of lymphoma cells relative to component and competitor molecules [2]: more effective at killing lymphoma cells than component molecules and competitor molecules

SMILES: CNC(=O)COc1cc2cc(Nc3nc(N4CCC(C(=O)NCCCNC(=O)CO/N=C5\CC[C@H]6[C@@H]7CC[C@H]8CC(=O)CC[C@]8(C)[C@H]7CC[C@]56C)CC4)ncc3Cl)cc(OC)c2n(C)c1=O [RCS-02-063]
- IC50 [3]: ~1 µM
- IC50 ([3]; Homo sapiens, 72 h): ~1.5 µM
- BRET signal (target engagement) [4]: robust BRET signal

SMILES: Cc1sc2c(c1C)C(c1ccc(Cl)cc1)=N[C@@H](CC(=O)OC(C)(C)C)c1nnc(C)n1-2 [JQ1]
- Rescue of TCIP-induced cell death [5]: rescue cell death; also recorded: prevented death by TCIP1
- IC50 [6]: 14.4 µM
- IC50 [7]: 10.1 µM
- IC50 [8]: Unstable
- Drug level that reduces expression of MYC [9]: 500 nM
